# Test results published in publication PMC10495264 (Nature Cell Biology, 2023).
# Values joined by “and” are separate entries in the source; they are usually repeats but may differ in a detail not shown here. Equal values may be shown once.
# Assays:
# ERK1/2 = ERK1/2 phosphorylation immunoblot; assay type: cell-based, human; conditions: ED Fig. 5k; relative to DMSO
# Description: (§1) For standard SDS–PAGE and immunoblotting experiments, cells from a well of a 12-well plate were lysed in 250 μl of ice-cold Triton lysis buffer (50 mM Tris pH 7.5, 1% Triton X-100, 150 mM NaCl, 50 mM NaF, 2 mM Na-vanadate and 0.011 g ml^−1 β-glycerophosphate) supplemented with 1×PhosSTOP phosphatase inhibitors (cat. no. 4906837001, Roche) and 1×cOmplete protease inhibitors (cat. no. 11836153001, Roche) for 10 min on ice. The samples were clarified by centrifugation (20,000g, 15 min, 4 °C) and the supernatants were boiled in 1×SDS sample buffer (5×SDS sample buffer: 350 mM Tris–HCl pH 6.8, 30% glycerol, 600 mM DTT, 12.8% SDS and 0.12% bromophenol blue). The band intensities were quantified using the ImageJ software.
# (§2) Data in graphs are shown as the mean ± s.e.m. *P < 0.05, **P < 0.005. Source numerical data and unprocessed blots are provided. Source data
# mTORC1 [1] = assay: mTORC1 activity in mouse embryonic fibroblasts (MEFs), p-S6K^T389/S6K immunoblot; assay type: cell-based
# [2] = tested on: mTOR lysosomal localization; assay: Co-localization of mTOR with LAMP2, confocal microscopy; assay type: cell-based, human
# AMPK = AMPK and ACC1 phosphorylation immunoblot; assay type: cell-based, human; conditions: relative to DMSO
# Description: as §1, §2
# mTORC1 [3] = assay: mTORC1 activity in HEK293T cells (WT, AMPKα1/2 KO, DEPDC5 and RagA/B triple KO), p-S6K^T389/S6K immunoblot; assay type: cell-based, human
# Description: Source numerical data and unprocessed blots are provided. Source data
# as §1
# Data in graphs are shown as the mean ± s.e.m. *P < 0.05, **P < 0.005, ***P < 0.0005. Source numerical data and unprocessed blots are provided. Source data
# mTORC2 = mTORC2 activity in HEK293FT cells, p-AKT^S473/AKT immunoblot; assay type: cell-based, human
# Description: Phosphorylation of Ypk1 was used as the TORC2 readout. Phosphorylation of Snf1 was used as the AMPK activation readout. Total Snf1 was detected with an antibody to a histidine (His) stretch in Snf1. […] Source numerical data and unprocessed blots are provided. Source data
# (§3) Amino-acid-starvation experiments were carried out as described before[42],[43]. […] For the lipid depletion experiments, cells were cultured in medium containing 10% charcoal-stripped FBS (A3382101, Thermo Fisher Scientific), instead of full FBS, for 24 h before treatments with FASN inhibitors were performed. For FA supplementation, each FA was first conjugated to 10% FA-free BSA (fraction V; cat. no. 10735086001, Roche) for 1 h at 50 °C in a 50:50 volumetric ratio. The BSA-conjugated C16:0, C16:1, C18:1 and C18:2 FAs (100 μM) were then added to the media both 16 h previous to and at the start of the treatment with FASN inhibitors.
# as §1
# mTORC1 [4] = assay: mTORC1 activity in HEK293FT cells (WT and knockout lines), phosphorylation of S6K, 4E-BP1, Grb10, TFEB by immunoblot; assay type: cell-based, human; conditions: for p-S6K(T389)/S6K: Replicates 1-3, DMSO = 1 (ED Fig. 8h)
# Description: Data represent the median fluorescence intensity of OPP Alexa Fluor 488; n = 6 biological replicates from two independent experiments. b,c,e,g,i,k,l, Data are the mean ± s.e.m. *P < 0.05, **P < 0.005, ***P < 0.0005. […] Source numerical data and unprocessed blots are provided. Source data
# as §3, §1
# mTORC1 [5] = assay: mTORC1 activity in U2OS cells, immunoblot; assay type: cell-based, human; conditions: Fasnall 25 μM 30 min; cerulenin 50 μM 2 or 4 h
# [6] = Fasnall 25 μM 30 min, cerulenin 50 μM 4 h
compound,measurement,setting,value
Cc1sc2ncnc(NC3CCN(Cc4ccccc4)C3)c2c1C (stereo not shown) [Fasnall],"p-ERK(T202/Y204)/ERK, Mean",ERK1/2,0.525
same,"p-S6K(T389)/S6K, Mean","mTORC1 [1]; ED Fig. 4b, relative to DMSO",0.4247
same,mTORC1 activity in MEFs,"mTORC1 [1]; Fasnall 25 μM 30 min, cerulenin 50 μM 2 or 4 h",downregulates
same,mTOR/LAMP2 colocalization (Manders' coefficient),"[2]; Fasnall 30', Replicate 2, individual cells (ED Fig. 8b)",0.475 and 0.399 and 0.259 and 0.343 and 0.372 and 0.439 and 0.359 and 0.413 and 0.403 and 0.14 and 0.1 and 0.291 and 0.207 and 0.085 and 0.364 and 0.524 and 0.395 and 0.22 and 0.281 and 0.339 and 0.627 and 0.352 and 0.483 and 0.276 and 0.195 and 0.511 and 0.191
same,mTOR/LAMP2 colocalization (Manders' coefficient),"[2]; Fasnall 30', Replicate 4, individual cells (ED Fig. 8b)",0.446 and 0.648 and 0.366 and 0.481 and 0.313 and 0.232 and 0.1 and 0.151 and 0.321 and 0.261 and 0.549 and 0.486 and 0.59 and 0.448 and 0.288 and 0.329 and 0.377 and 0.426 and 0.197 and 0.422 and 0.449 and 0.465 and 0.297 and 0.542 and 0.319 and 0.458 and 0.212 and 0.351 and 0.306
same,"mTOR/LAMP2 colocalization (Manders' coefficient), Mean","[2]; Fasnall 30', mean of pooled individual cells (ED Fig. 8b), DMSO mean 0.568258",0.3868
same,mTOR/LAMP2 colocalization (Manders' coefficient),"[2]; Fasnall 60', Replicate 2, individual cells (ED Fig. 8b)",0.202 and 0.487 and 0.43 and 0.287 and 0.399 and 0.342 and 0.295 and 0.326 and 0.268 and 0.605 and 0.328 and 0.333 and 0.315 and 0.375 and 0.636 and 0.498 and 0.603 and 0.513 and 0.443
same,mTOR/LAMP2 colocalization (Manders' coefficient),"[2]; Fasnall 60', Replicate 4, individual cells (ED Fig. 8b)",0.425 and 0.202 and 0.399 and 0.49 and 0.499 and 0.282 and 0.303 and 0.344 and 0.361 and 0.405 and 0.518 and 0.461 and 0.434 and 0.504 and 0.271 and 0.298 and 0.295 and 0.41 and 0.416 and 0.567 and 0.365 and 0.689 and 0.431 and 0.398 and 0.488
same,"mTOR/LAMP2 colocalization (Manders' coefficient), Mean","[2]; Fasnall 60', mean of pooled individual cells (ED Fig. 8b), DMSO mean 0.568258",0.4158
same,mTOR localization at lysosomes (co-localization with LAMP2),"[2]; HEK293FT, 25 μM Fasnall or 50 μM cerulenin",significant dissociation
same,"mTOR/LAMP2 colocalization (Manders' coefficient), Mean","[2]; Luc-expressing cells, Fasnall 30' (ED Fig. 8j), Luc DMSO mean 0.429851",0.3242
same,"mTOR/LAMP2 colocalization (Manders' coefficient), Mean","[2]; RagA(QL)/C(SN)-expressing cells, Fasnall 30' (ED Fig. 8j), DMSO mean 0.528308",0.4688
same,"p-AMPK(T172)/AMPK, Mean",AMPK; ED Fig. 5b,4.063
same,"p-ACC1(S79)/ACC1, Mean",AMPK; ED Fig. 5c,2.603
same,"p-S6K(T389)/S6K, Mean","mTORC1 [3]; ED Fig. 7b, AMPKa1/2 KO, 30', relative to AMPKa1/2 KO DMSO",0.6838
same,"p-S6K(T389)/S6K, Mean","mTORC1 [3]; ED Fig. 7b, AMPKa1/2 KO, 60', relative to AMPKa1/2 KO DMSO",0.7858
same,"p-S6K(T389)/S6K, Mean","mTORC1 [3]; ED Fig. 7b, WT, 30', relative to WT DMSO",0.4433
same,"p-S6K(T389)/S6K, Mean","mTORC1 [3]; ED Fig. 7b, WT, 60', relative to WT DMSO",0.4902
same,"p-S6K(T389)/S6K, Mean","mTORC1 [3]; ED Fig. 7g, DEPDC5+RagA/B KO, 30', relative to DEPDC5+RagA/B KO DMSO",0.2954
same,"p-S6K(T389)/S6K, Mean","mTORC1 [3]; ED Fig. 7g, DEPDC5+RagA/B KO, 60', relative to DEPDC5+RagA/B KO DMSO",0.2391
same,"p-S6K(T389)/S6K, Mean","mTORC1 [3]; ED Fig. 7g, WT, 30', relative to WT DMSO",0.4545
same,"p-S6K(T389)/S6K, Mean","mTORC1 [3]; ED Fig. 7g, WT, 60', relative to WT DMSO",0.4895
same,"p-AKT(S473)/AKT, Mean","mTORC2; 25 μM Fasnall 30 min, DMSO = 1, n = 4, Fig. 3b",1.017
same,phosphorylation of Akt (mTORC2 substrate),mTORC2; [6],did not significantly alter
same,"p-Grb10(S476)/Grb10, Mean","mTORC1 [4]; ED Fig. 3b, relative to DMSO",0.4881
same,"p-TFEB(S211)/TFEB, Mean","mTORC1 [4]; ED Fig. 3c, relative to DMSO",0.3867
same,"p-S6K(T389)/S6K, Mean","mTORC1 [4]; ED Fig. 4n, relative to DMSO",0.2327
same,mTORC1 activity towards Grb10 and TFEB (cerulenin: also 4E-BP1),mTORC1 [4]; [6],downregulates
same,"mTORC1 activity (phosphorylation of S6K, 4E-BP1, Grb10 and TFEB)","mTORC1 [4]; HEK293FT cells, Fasnall, cerulenin or siFASN",suppressed
same,"p-S6K(T389)/S6K, Mean","mTORC1 [4]; HEK293FT expressing FLAG-ACC1 S79A, Fasnall 25 μM, 30 min, respective DMSO = 1, Fig. 4b",0.3193
same,"p-S6K(T389)/S6K, Mean","mTORC1 [4]; HEK293FT expressing FLAG-ACC1 WT, Fasnall 25 μM, 30 min, respective DMSO = 1, Fig. 4b",0.6407
same,"p-S6K(T389)/S6K, Mean","mTORC1 [4]; HEK293FT expressing FLAG-Luc, Fasnall 25 μM, 30 min, respective DMSO = 1, Fig. 4b",0.6832
same,"p-S6K(T389)/S6K, Mean","mTORC1 [4]; HEK293FT, 25 μM Fasnall 30', DMSO = 1, n = 6, Fig. 2g",0.526
same,"p-S6K(T389)/S6K, Mean","mTORC1 [4]; HEK293FT, 25 μM Fasnall 60', DMSO = 1, n = 6, Fig. 2g",0.5445
same,"p-S6K(T389)/S6K, Mean","mTORC1 [4]; Luc-expressing cells, Fasnall 30', DMSO = 1 (ED Fig. 8h)",0.4328
same,p-S6K(T389)/S6K,"mTORC1 [4]; Luc-expressing cells, Fasnall 30'",0.4633 and 0.548 and 0.2872
same,"p-S6K(T389)/S6K, Mean","mTORC1 [4]; Luc-expressing cells, Fasnall 60', DMSO = 1 (ED Fig. 8h)",0.3861
same,p-S6K(T389)/S6K,"mTORC1 [4]; Luc-expressing cells, Fasnall 60'",0.4934 and 0.1817 and 0.4832
same,"p-S6K(T389)/S6K, Mean","mTORC1 [4]; RagA(QL)/C(SN)-expressing cells, Fasnall 30', DMSO = 1 (ED Fig. 8h)",0.4794
same,p-S6K(T389)/S6K,"mTORC1 [4]; RagA(QL)/C(SN)-expressing cells, Fasnall 30'",0.6415 and 0.4768 and 0.3198
same,"p-S6K(T389)/S6K, Mean","mTORC1 [4]; RagA(QL)/C(SN)-expressing cells, Fasnall 60', DMSO = 1 (ED Fig. 8h)",0.4741
same,p-S6K(T389)/S6K,"mTORC1 [4]; RagA(QL)/C(SN)-expressing cells, Fasnall 60'",0.6662 and 0.3714 and 0.3847
same,"p-S6K(T389)/S6K, Mean","mTORC1 [4]; RagA/B KO HEK293FT, 25 μM Fasnall 30', respective DMSO = 1, n = 4, Fig. 5i",0.306
same,"p-S6K(T389)/S6K, Mean","mTORC1 [4]; RagA/B KO HEK293FT, 25 μM Fasnall 60', respective DMSO = 1, n = 4, Fig. 5i",0.3694
same,"p-S6K(T389)/S6K, Mean","mTORC1 [4]; TSC1 KO HEK293FT, 25 μM Fasnall 30 min, respective DMSO = 1, n = 6, Fig. 5n",0.4771
same,"p-S6K(T389)/S6K, Mean","mTORC1 [4]; WT HEK293FT, 25 μM Fasnall 30', respective DMSO = 1, n = 4, Fig. 5i",0.3695
same,"p-S6K(T389)/S6K, Mean","mTORC1 [4]; WT HEK293FT, 25 μM Fasnall 60', respective DMSO = 1, n = 4, Fig. 5i",0.3619
same,"p-S6K(T389)/S6K, Mean","mTORC1 [4]; WT HEK293FT, 25 μM Fasnall 30 min, respective DMSO = 1, n = 6, Fig. 5n",0.3275
same,mTORC1 activity in U2OS,mTORC1 [5],downregulates
